This assay addresses T1, hPSA peptide RHSLFHP coated onto carboxyl magnetic particles (Homo sapiens, UniProt P07288).
T1 construct: Human prostate specific antigen (hPSA) peptide 53–59: RHSLFHP; purchased GenScript; host or cells: synthetic peptide
The assay can be described thus: Magnetic particle enzyme immunoassay (MPEIA). Format: binding. The note with it: peptide 1.09–70 µM, 30 min, room temperature; streptavidin-peroxidase/OPD, 450 nm; r^2 = 0.996; mean ± SEM (SEM 0.20 µM); read-out: dissociation constant (Kd). Here is the method:
Briefly, the reaction mixture was composed of 2 mL sodium acetate buffer (0.01M, pH 5.0), 2 mg of peptide and 2 mL of 2.5% w/v carboxyl magnetic particles―1.14 μm, 20 mg of EDC. Reactions proceeded in glass reaction tubes overnight at room temperature in a rotary mixer. Tubes were centrifuged at 3000× g for 15 min, supernatant was carefully discarded, and the pellets were washed twice in 4 mL isotonic buffered saline (IBS), followed by centrifugation. After washing, coated magnetic particles were resuspended in 4 mL of PBS containing 0.05% Tween 20.
Two folds serial dilutions (1.09–70 µM) of biotinylated antisense peptide AVRDKVG were made in 96-well microtiter plates to generate standard curves (Figure 4b). Mismatched peptide Biotin-EHFRW was used as a negative control (Figure 4b). A suspension (1.25% w/v) of carboxyl magnetic particles, coated with sense peptide RHSLFHP, was added to each well (40 µL/well). The plates were incubated at room temperature for 30 min and washed with PBS-Tween 20 five times. The washing solution was removed each time using the Spherotech UltraMag Separator (Sperotech, Inc., Lake Forest, IL, USA).
A blocking solution (PBS with 1% BSA) was added to the wells and incubated at room temperature for one hour. […] The absorbances were read at 450 nm on a multiwell plate reader. The data were analyzed using GraphPad Prism software version 5.

Where a SMILES comes first, the peptide text is derived from it. The star is where a group is joined. Biotin = O=C1N[C@H]2[C@H](CS[C@H]2CCCCC(=O)*)N1

As a reminder, the Kd is a measure of binding affinity in units of concentration.

Regarding `CC(C)[C@H](NC(=O)[C@H](C)NC(=O)CCCC[C@@H]1SC[C@@H]2NC(=O)N[C@@H]21)C(=O)N[C@@H](CCCNC(=N)N)C(=O)N[C@@H](CC(=O)O)C(=O)N[C@@H](CCCCN)C(=O)N[C@H](C(=O)NCC(=O)O)C(C)C` [Biotin-AVRDKVG] (Biotin-AVRDKVG-OH), the Kd stood at 24.6 µM.

The values are drawn from article PMC6540241, “Targeting Tumor Markers with Antisense Peptides: An Example of Human Prostate Specific Antigen” (International Journal of Molecular Sciences, 2019).
